Experimental data as given in patent publication US20120040904A1, “Boronate Medicaments for Preventing Thrombosis During Surgery” (Trigen Holdings AG, priority 2004, published 2012).
Marks after values point to notes of the source that are not given here.

What was measured:
[1] = Comparative storage stability of sodium and calcium salts (Example 42); format: physicochemical; conditions: for Tri50c (w/w %, LOD corr.): corrected for loss on drying
Text: In both studies the active pharmaceutical ingredient was stored in grip sealed double bags within a PE/PP screw cap closed cylinder.

[2] = Maximum solution concentration with and without pH control; format: physicochemical
[3] = test system: dogs undergoing hypothermic CPB; test: Simulated mitral valve repair in dogs undergoing hypothermic CPB; format: in vivo, beagle dogs; conditions: intravenous, dogs on CPB
Experimental: Following a dose ranging study in conscious dogs, six beagle dogs were placed on CPB and underwent a simulated mitral valve repair. A range of dynamic coagulation markers were measured, including thrombin clotting time (TT), activated partial thromboplastin time (APTT), activated clotting time (ACT), ecarin clotting time (ECT), whole blood thrombin clotting time, platelet counts and function tests. In addition, pre and post-operative echocardiograms and intra-operative blood loss were evaluated. […] By virtue of its predictable anticoagulant efficacy and controlled duration of action, TGN 255 offers potential in on pump and off pump coronary bypass procedures.

[4] = test system: healthy male subjects; test: Intravenous administration into humans (randomised double blind placebo study); format: in vivo; conditions: intravenous infusion
Experimental: The test consisted of three groups, each of six males. From each group 5 men were given the active ingredient and 1 was given a placebo.
Total I.V. administered doses were: • 82 mg (7 mg intravenous bolus (over 30 s) followed by an infusion of 25 mg/h for 3 hours). • 130 mg (10 mg intravenous bolus (over 30 s) followed by an infusion of 40 mg/h for 3 hours). • 120 mg (by infusion of 40 mg/h for 3 hours).

[5] = test system: beagle dogs; test: Intravenous administration in beagle dogs, PK/PD (thrombin time, APTT); format: in vivo; conditions: 1.0 mg/kg i.v.
Experimental: Plasma concentrations were measured using an LCMS/MS method.
Blood samples were taken into 3.8% tri-sodium citrate (1+8) at pre dose, 2, 5, 10, 20, 30, minutes post dose and then at 1, 2, 3, 4, 6, 8, 12 and 24 hours post dose. Plasma was prepared by centrifugation and frozen at minus 20° C. pending analysis.

[6] = Stability: HPLC assay before and after drying over phosphorus pentoxide for 1 week; format: physicochemical; conditions: dry
Experimental: An assay of TRI 50c and its sodium and lysine salts before and after drying.
For sample analysis, 5 mg of dried and non-dried material was weighed in a 5 mL volumetric flask and dissolved in 1 mL acetonitrile and filled up with demineralised water to 5 mL.
The quantitative evaluation was performed using an HPLC-PDA method.

COCCC[C@H](NC(=O)[C@@H]1CCCN1C(=O)[C@@H](Cc1ccccc1)NC(=O)OCc1ccccc1)B([O-])O.COCCC[C@H](NC(=O)[C@@H]1CCCN1C(=O)[C@@H](Cc1ccccc1)NC(=O)OCc1ccccc1)B([O-])O.[Ca+2] [TRI 50c calcium salt]
Tri50c (w/w %, LOD corr.) ([1]; T = 0): (99.7) w/w %
Tri50c (w/w %, LOD corr.) ([1]; T = 1, 25° C./60% r.h.): (101.5) w/w %
Tri50c (w/w %, LOD corr.) ([1]; T = 1, 40° C./75% r.h.): (100.6) w/w %
Tri50c (w/w %, LOD corr.) ([1]; T = 1, −20° C.): (102.7)^x w/w %
Tri50c (w/w %, LOD corr.) ([1]; T = 3, 25° C./60% r.h.): (104.3) w/w %
Tri50c (w/w %, LOD corr.) ([1]; T = 3, 40° C./75% r.h.): (82.0) w/w %
Tri50c (w/w %, LOD corr.) ([1]; T = 3, −20° C.): (103.0)^x w/w %
TRI 50c (w/w) ([1]; T = 12 25° C./60% r.h.): 94.8 w/w

COCCC[C@H](NC(=O)[C@@H]1CCCN1C(=O)[C@@H](Cc1ccccc1)NC(=O)OCc1ccccc1)B(O)O.[Na+] [TRI 50c sodium salt, Cbz-(R)-Phe-(S)-Pro-(R)-Mpg-B(OH)2 monosodium salt]
Maximum concentration ([2]; control solution, about pH 7): about 20 mg/ml
Concentration of solution obtainable ([2]; pH of about 9.5, pH not controlled): about 600 mg/ml
Anticoagulation during bypass and surgery [3]: excellent anticoagulation
Bleeding during bypass and surgery [3]: little bleeding
Effect on thrombin time (TT) [4]: rapid, dose-related increase
APTT elevation [5]: 1.3 times

COCCC[C@H](NC(=O)[C@@H]1CCCN1C(=O)[C@@H](Cc1ccccc1)NC(=O)OCc1ccccc1)B(O)O [TRI 50c, Cbz-(R)-Phe-(S)-Pro-(R)-boroMpg-OH]
Amount [6]: 1000.0 µg/mL
